Measurements published in publication PMC11794875, “Molecular basis for azetidine-2-carboxylic acid biosynthesis” (Nature Communications, 2025).
Read-outs that look alike come from different tables or passages of the source.

What was measured:
AzeJ [1] = target: T1, AzeJ (Pseudomonas aeruginosa, UniProt Q9HYR0); assay: X-ray crystal structure, […] Å; type: binding; details: co-crystallised with 2 mM SAM, pH 7.0 or 7.2, formed in crystal, active site
T1 construct: gene PA3335; N-terminal His6-SUMO fusion in pETDuet, codon-optimised, SUMO tag cleaved by Ulp1; E. coli BL21 Gold (DE3); homodimer
T1 sequence (Q9HYR0 entry or part of it): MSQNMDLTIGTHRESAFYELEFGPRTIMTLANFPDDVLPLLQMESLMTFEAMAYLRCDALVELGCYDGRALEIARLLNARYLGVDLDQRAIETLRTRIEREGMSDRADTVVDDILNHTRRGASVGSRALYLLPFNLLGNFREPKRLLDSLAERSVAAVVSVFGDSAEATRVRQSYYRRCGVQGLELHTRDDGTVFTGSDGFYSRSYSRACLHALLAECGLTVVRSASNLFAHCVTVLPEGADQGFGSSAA

AzeJ [2] = target: T1, AzeJ; type: binding; details: 100 mM Tris-HCl, pH 8.0, 10 µM protein
VioH = target: T2, VioH (Archangium violaceum, UniProt Z9G018KSM0); assay: in vitro AZE synthase activity assay, HPLC; type: biochemical; details: without VioG partner
T2 construct: N-terminal His6-SUMO fusion in pETDuet, codon-optimised, SUMO tag cleaved by Ulp1; E. coli BL21 Gold (DE3); monomer
T2 sequence (Z9G018KSM0 1-236): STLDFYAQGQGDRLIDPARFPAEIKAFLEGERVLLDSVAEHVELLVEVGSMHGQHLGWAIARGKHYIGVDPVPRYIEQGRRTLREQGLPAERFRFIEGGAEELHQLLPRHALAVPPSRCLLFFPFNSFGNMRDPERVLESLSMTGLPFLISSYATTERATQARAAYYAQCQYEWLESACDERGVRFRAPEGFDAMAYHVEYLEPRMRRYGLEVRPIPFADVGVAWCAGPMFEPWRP

CSC[C@H]1O[C@@H](n2cnc3c(N)ncnc32)[C@H](O)[C@@H]1O [MTA, 5′-methylthioadenosine]
X-ray crystal structure, 1.95 Å (AzeJ [1]; with AZE): Fo-Fc electron density maps reveal that MTA and AZE are bound to the active site

Nc1ncnc2c1ncn2[C@@H]1O[C@H](CSCC[C@H](N)C(=O)O)[C@@H](O)[C@H]1O [SAH, S-adenosyl-L-homocysteine]
dTm (AzeJ [2]; 0–1 mM SAH): In the presence of SAM or SAH, the melting temperature of AzeJ increased

C[S+](CC[C@H](N)C(=O)O)C[C@H]1O[C@@H](n2cnc3c(N)ncnc32)[C@H](O)[C@@H]1O (some centres unmarked) [SAM, S-adenosylmethionine]
dTm (AzeJ [2]; 0–1 mM SAM): In the presence of SAM or SAH, the melting temperature of AzeJ increased | in vitro AZE synthase activity assay, HPLC (VioH): in vitro observation that VioH alone had minimal catalytic activity (Fig. S8)

O=C(O)[C@@H]1CCN1 [AZE, azetidine-2-carboxylic acid]
X-ray crystal structure, 1.95 Å (AzeJ [1]; with MTA): Fo-Fc electron density maps reveal that MTA and AZE are bound to the active site
